These results are taken from patent publication US20250289788A1, “HALOALKYL SULFONANILIDE COMPOUND AND HERBICIDE CONTAINING THE SAME” (SDS BIOTECH K.K., priority 2022, published 2025).

Common to all, as to assay type: in vivo
Data set [1] deals with Schoenoplectiella juncoides (SJ). The data set can be described thus: Test Example 1: herbicidal effect test using paddy field flooding treatment. As to conditions: dose 16 g a.i./ha, water surface application, 21 days after treatment. Here is the method: (§1) <Test Example 1> Herbicidal Effect Test Using Paddy Field Flooding Treatment
(§2) After each 40-cm^2 plastic cup was loaded with puddled paddy field soil, seeds of each of the following species were sown and grown in a greenhouse: Echinochloa crus-galli var. oryzicola (EC), Schoenoplectiella juncoides (SJ), Monochoria vaginalis (MV), or Ammannia multiflora (AM). After plants were grown for 14 days, water was flooded to a depth of 3 cm, and a 10% wettable powder, which had been adjusted according to Formulation Example 1, was diluted with distilled water and applied dropwise to the water surface. The amount applied was 1000, 500, 250, 125, 63, 31, or 16 g of active ingredient per hectare. The test was conducted in two series. Herbicidal efficacy (degree (%) of suppression of growth of terrestrial part: 100 (complete death) to 0 (no action)) was investigated at 21 days after the treatment.

The next data set concerns Ammannia multiflora (AM). The data set can be described thus: Comparative Example: herbicidal efficacy test of treatment during growth stage under flooding conditions. As to conditions: treatment during growth stage (14 days after sowing), day 21 after treatment. The source says: (§3) The control compound a is described as Compound No. III-1 on page 245 of PLT 5, and the control compound b is described as Compound No. III-9 on page 245 of PTL 5. […] As an example, herbicidal efficacy against critical paddy field weeds such as Monochoria vaginalis (MV) and Ammannia multiflora (AM) as well as Oryza sativa (OS) chemical damage were compared and are specifically described below as a Comparative Example.
(§4) [Comparative Example] Herbicidal Efficacy Test of Treatment During Growth Stage […] Under Flooding Conditions
(§5) After each 40-cm^2 plastic cup was loaded with puddled paddy field soil, seeds of each of Monochoria vaginalis (MV) or Ammannia multiflora (AM) were sown and grown in a greenhouse. After plants were grown for 14 days, one rice plant (variety: Nippon-bare) at the 2-leaf stage was transplanted at a transplanting depth of 1 cm. Water was flooded to a depth of 3 cm, and wettable powder containing the present invention compound, which had been adjusted according to Formulation Example 1, or each control compound was diluted with distilled water and applied dropwise to the water surface. The amount applied was 125, 63, or 31 g of active ingredient per hectare. The test was conducted in two series. On day 21 after treatment, the herbicidal efficacy and chemical damage were examined according to the following criteria.
(§6) 9-10 . . . Herbicidal activity “Maximum”, 90% or higher herbicidal efficacy or chemical damage
(§7) 7 to 8 . . . Herbicidal activity “high”, 70% or higher and less than 90% herbicidal efficacy or chemical damage
(§8) 5 to 6 . . . Herbicidal activity “medium”, 50% or higher and less than 70% herbicidal efficacy or chemical damage
(§9) 0 to 4 . . . Herbicidal activity “none to low”, 0% or higher and less than 50% herbicidal efficacy or chemical damage

The test system of data set [2] is Monochoria vaginalis (MV). The description is as above. As to conditions: treatment during growth stage (14 days after sowing), day 21 after treatment.
Description: as §3, §4, §5, §6, §7, §8, §9

A further data set concerns Oryza sativa (OS). The data set can be described thus: Comparative Example: chemical damage to transplanted rice under flooding conditions. As to conditions: applied dropwise to water surface, day 21 after treatment.
Description: as §3, §4, §5, §6, §7, §8, §9

The test system of data set [3] is Echinochloa crus-galli var. oryzicola (EC). Briefly: Test Example 1: herbicidal effect test using paddy field flooding treatment. Particulars: dose 1000 g a.i./ha, water surface application, 21 days after treatment. Here is the method:
as §1, §2

As for `CC=CC(=O)N(c1ccccc1CN1CCc2c(F)ccc(F)c2C1=O)S(=O)(=O)C(F)(F)F` [Compound 3-116], the “herbicidal efficacy (degree (%) of suppression of growth of terrestrial part)” value in data set [1] is at least 80%.
Turning to `O=C1c2ccccc2CCN1Cc1ccccc1NS(=O)(=O)C(F)(F)F` [Compound 3-1], the “herbicidal efficacy AM (score 0-10)” value with Ammannia multiflora (AM) (31 g a.i./ha), in the data set with Ammannia multiflora (AM) (63 g a.i./ha) and with Ammannia multiflora (AM) (125 g a.i./ha) was 10 each time. Moreover, the “herbicidal efficacy MV (score 0-10)” value in data set [2] (31 g a.i./ha), in data set [2] (63 g a.i./ha) and in data set [2] (125 g a.i./ha) was 10 throughout. The “chemical damage to transplanted rice OS (score 0-10)” value (from here on “chemical damage”) in the data set on Oryza sativa (OS) (31 g a.i./ha), in the data set on Oryza sativa (OS) (63 g a.i./ha) and with Oryza sativa (OS) (125 g a.i./ha) was 0 each time.
With `CCOC(=O)N(c1ccccc1CN1CCCCC1=O)S(=O)(=O)C(F)(F)F` [Compound b], the “herbicidal efficacy AM (score 0-10)” value with Ammannia multiflora (AM) (31 g a.i./ha), with Ammannia multiflora (AM) (63 g a.i./ha) and in the data set on Ammannia multiflora (AM) (125 g a.i./ha) was 10 in each case. For the same compound, the “herbicidal efficacy MV (score 0-10)” value is listed as 7 in data set [2] (31 g a.i./ha), 10 in data set [2] (63 g a.i./ha) and 10 in data set [2] (125 g a.i./ha). Also, the figures for the “chemical damage” value in the data set on Oryza sativa (OS) (31 g a.i./ha), with Oryza sativa (OS) (63 g a.i./ha) and in the data set on Oryza sativa (OS) (125 g a.i./ha) were 3, 8 and 10, respectively.
As to `O=C1CCCCN1Cc1ccccc1NS(=O)(=O)C(F)(F)F` [Compound a], the “herbicidal efficacy AM (score 0-10)” value in the data set on Ammannia multiflora (AM) (31 g a.i./ha), in the data set with Ammannia multiflora (AM) (63 g a.i./ha) and with Ammannia multiflora (AM) (125 g a.i./ha) was 10 each time. The “herbicidal efficacy MV (score 0-10)” value in data set [2] (31 g a.i./ha), in data set [2] (63 g a.i./ha) and in data set [2] (125 g a.i./ha) was 10 in each case. Besides, the results for the “chemical damage” value in the data set with Oryza sativa (OS) (31 g a.i./ha), in the data set on Oryza sativa (OS) (63 g a.i./ha) and in the data set with Oryza sativa (OS) (125 g a.i./ha) were 6, 10 and 10, respectively.
For the compound `O=C1Cc2cc(F)ccc2N1Cc1ccccc1NS(=O)(=O)C(F)(F)F` [Compound 8-2], the “herbicidal efficacy (degree (%) of suppression of growth of terrestrial part)” value in data set [3] is at least 80%.
With `CCOC(=O)N(c1ccccc1CN1CCc2ccccc2C1=O)S(=O)(=O)C(F)(F)F` [Compound 3-139], the “herbicidal efficacy AM (score 0-10)” value in the data set on Ammannia multiflora (AM) (31 g a.i./ha), with Ammannia multiflora (AM) (63 g a.i./ha) and in the data set on Ammannia multiflora (AM) (125 g a.i./ha) was 10 in each case. In addition, the “herbicidal efficacy MV (score 0-10)” value in data set [2] (31 g a.i./ha) is listed as 7; in data set [2] (63 g a.i./ha), 10; in data set [2] (125 g a.i./ha), 10. The “chemical damage” value with Oryza sativa (OS) (31 g a.i./ha), in the data set on Oryza sativa (OS) (63 g a.i./ha) and in the data set on Oryza sativa (OS) (125 g a.i./ha) was 0 each time.
